Laboratory results from patent publication US4120864A, “1,2,4-4H-triazole derivatives” (Rohm and Haas Company, priority 1972, dated 1978).
Where two headings read alike, the source gives them in different places.

Columns and labels:
[1] = tested on: wheat leaf rust, Puccinia recondita; experiment: whole plant or invertebrate; assay type: in vivo; settings: foliar
[2] = tested on: wheat leaf rust, Puccinia recondita; experiment: whole plant or invertebrate; assay type: in vivo; settings: foliar; remark: listed apart in the source
[3] = tested on: wheat leaf rust, Puccinia recondita; assay type: in vivo
[4] = tested on: wheat leaf rust, Puccinia recondita; experiment: Foliar systemic activity on leaf rust; assay type: in vivo
[5] = tested on: Pythium ultimum; settings: in vivo

CCCCn1cnnc1SC(=O)c1ccc(OC)cc1 [Example 121, 3-(4-methoxybenzoylmercapto)-4-n-butyl-1,2,4-triazole]
pest or weed control at 280.212 g/ha ([1]; read-out: % Control (without rain), foliar, 0.25 lb.): 90% | pest or weed control at 1120.85 g/ha ([1]; read-out: % Control (without rain), foliar, 1 lb.): 98% | pest or weed control at 280.212 g/ha ([2]; read-out: % Control (with 1" of rain), foliar, 0.25 lb., 1" of rain): 100% | pest or weed control at 1120.85 g/ha ([2]; read-out: % Control (with 1" of rain), foliar, 1 lb., 1" of rain): 100% | % Systemic Wheat Leaf Rust Control ([3]; 2.5 ppm in soil): 98% | % Systemic Wheat Leaf Rust Control ([3]; 5 ppm in soil): 100% | % Systemic Wheat Leaf Rust Control ([3]; 10 ppm in soil): 100% | % Rust Control, New growth ([4]; 1/2 lb./100 gal.): 92% | % Rust Control, Sprayed Leaf ([4]; 1/2 lb./100 gal.): 95% | % Rust Control, New growth ([4]; 1/6 lb./100 gal.): 79% | % Rust Control, Sprayed Leaf ([4]; 1/6 lb./100 gal.): 81% | % Rust Control, New growth ([4]; 1/12 lb./100 gal.): 77% | % Rust Control, Sprayed Leaf ([4]; 1/12 lb./100 gal.): 91% | control of Pythium ultimum [5]: excellent control
